Laboratory results taken from the supplement of paper PMC10307832.

Compound: N[C@@H]1CCCN(c2c(/C=C3\SC(=O)NC3=O)cccc2-c2ccccc2)C1 [AZD1208] + COc1cccc2cc(-c3nc([C@H]4CC[C@H](C(=O)O)CC4)n4ncnc(N)c34)[nH]c12 [OSI-027] (partner 0.5 µM)
Assay: relative viability (nuclei count vs DMSO), 5 days (fraction); higher = more cells survive
Settings: first compound 0.8 µM
Method in brief: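 Cells from lung cancer lines were seeded into 1536-well plates and, one day later, dosed by pin tool. Treatments were either a single drug or a fixed dose of an anchor drug with five library-drug doses (not always all listed) in √10 steps. After 5 days, nuclei were stained in a one-step fixation (final 0.05% Triton X-100, 1% formaldehyde, 1 ug/ml Hoechst) and counted on 4× images, and relative viability is the treated-to-vehicle nuclei ratio, as the median of duplicate plates.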

Cell Line | relative viability
EPLC-272H | 0.276
NCI-H23 | 0.523
NCI-H1792 | 0.614
NCI-H1355 | 0.315
NCI-H322M | 0.459
NCI-H1437 | 0.837
NCI-H1755 | 0.582
NCI-H2085 | 0.585
HCC-15 | 0.491
PC-3 [JPC-3] | 0.762
EKVX | 0.634
LC-2-ad | 0.624
NCI-H1563 | 0.704
NCI-H1944 | 0.305
NCI-H1975 | 0.68

Same assay, conditions: first compound 2.53 µM

Cell Line | relative viability
HCC-44 | 0.331
LU99A | 0.264
BEN | 0.294
HARA | 0.433
HCC-78 | 0.374
LCLC-97TM1 | 0.354
NCI-H2023 | 0.316
A-427 | 0.41
NCI-H460 | 0.647
NCI-H727 | 0.468
NCI-H1734 | 0.468
NCI-H520 | 0.179
NCI-H2405 | 0.607
SW 1573 | 0.381
201T | 0.53
NCI-H1915 | 0.428
HCC-827 | 0.617
LXF-289 | 0.647
NCI-H2347 | 0.302

Cell Line | relative viability
NCI-H650 | 0.394
CAL-12T | 0.506
NCI-H1651 | 0.595
EPLC-272H | 0.247
NCI-H23 | 0.37
NCI-H1792 | 0.607
NCI-H1355 | 0.285
NCI-H322M | 0.508
NCI-H1437 | 0.774
NCI-H1755 | 0.59
NCI-H2085 | 0.934
HCC-15 | 0.467
PC-3 [JPC-3] | 0.702
EKVX | 0.673
LC-2-ad | 0.707
NCI-H1563 | 0.695
NCI-H1944 | 0.282
NCI-H1975 | 0.758

Same assay, conditions: first compound 8 µM

Cell Line | relative viability
HCC-44 | 0.485
LU99A | 0.238
BEN | 0.238
HARA | 0.277
HCC-78 | 0.332
LCLC-97TM1 | 0.29
NCI-H2023 | 0.253
A-427 | 0.378
NCI-H460 | 0.477
NCI-H727 | 0.548
NCI-H1734 | 0.342
NCI-H520 | 0.188
NCI-H2405 | 0.532
SW 1573 | 0.348
201T | 0.477
NCI-H1915 | 0.451
HCC-827 | 0.667
LXF-289 | 0.648
NCI-H2347 | 0.35
NCI-H650 | 0.398
CAL-12T | 0.436
NCI-H1651 | 0.503
EPLC-272H | 0.281
NCI-H23 | 0.382
NCI-H1792 | 0.61
NCI-H1355 | 0.273
NCI-H322M | 0.462
